Reference: patent US20080171037A1, “Apo-3 ligand polypeptide” (Genentech, Inc., priority 1997, published 2008)
Each block holds one compound with its values, some of them ahead of it. Where a SMILES comes first, the peptide text is derived from it. The star is where a group is joined. Cbz = O=C(OCc1ccccc1)*; CH2F = FC*

How the values were obtained:
[1] = test system: HeLa S3 cervical carcinoma cells; assay: Apoptosis in HeLa S3 cells (DNA fragmentation analysis); type: cell-based, human; conditions: HeLa S3 cells, inhibitor 100 nM, FIG. 9C
Procedure: HeLa S3 cervical carcinoma cells (ATCC CCL 2.2) were similarly pre-treated with CHX and then incubated with soluble Apo-3 Ligand (prepared as described in Example 3 above) alone or together with zVAD-fmk or DEVD-fmk (Research Biochemicals) (100 nM). The treated cells were then subjected to DNA fragmentation analysis.

DR5 = target: T1, DR5 (Homo sapiens, UniProt O14763); assay: Co-immunoprecipitation binding assay with DR5 ECD; conditions: ligand and receptor 1 μg/ml, FIG. 8A
T1 construct: the ECD of the Apo-2L receptor, DR5; made in house
T1 sequence (O14763 56-184 limits assumed): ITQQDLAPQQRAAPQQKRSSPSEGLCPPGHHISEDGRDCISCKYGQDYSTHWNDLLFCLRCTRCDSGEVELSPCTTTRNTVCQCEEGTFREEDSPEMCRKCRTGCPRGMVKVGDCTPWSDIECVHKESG
Procedure: A Flag-epitope tagged soluble Apo-3 was produced (as described for DR5 in Sheridan et al., Science, 277:818 (1997)) and tested in a co-immunoprecipitation assay to examine its ability to associate with a histidine tagged soluble Apo-3 Ligand (see Example 3 above). […] The respective ligands (1 μg/ml) and receptors (1 μg/ml) were incubated for 1 hour at room temperature. The reaction mixtures were subjected to precipitation with anti-Flag antibody conjugated to sepharose beads (Kodak) (FIG. 8A, left) or nickel-sepharose (Qiagen) (FIG. 8A, right) by overnight incubation at 4° C. according to manufacturer's instructions and resolved by gel electrophoresis. The ligands were visualized by Western blot analysis with nickel-conjugated horseradish peroxidase. In FIG. 8A, molecular weight markers (kDa) are indicated on the left.

Apo-3 Ligand = target: T2, Apo-3 Ligand (Homo sapiens, UniProt O43508); assay: Apoptosis induction by Apo-3 Ligand after preincubation with Flag tagged Apo-3 and immunodepletion; type: cell-based; conditions: preincubation of ligand and immunodepletion of complexes with anti-Flag beads, FIG. 8B
T2 construct: made in house; host or cells: E. coli
T2 sequence (O43508 47-249): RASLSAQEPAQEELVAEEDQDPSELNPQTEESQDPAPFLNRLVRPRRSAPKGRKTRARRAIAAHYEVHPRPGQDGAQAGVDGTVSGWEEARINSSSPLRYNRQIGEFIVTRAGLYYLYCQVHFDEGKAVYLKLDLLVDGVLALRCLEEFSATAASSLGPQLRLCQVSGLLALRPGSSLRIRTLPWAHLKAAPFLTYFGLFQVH
Source text: Thus, there appeared to be a specific complex formation between Apo-3 Ligand and Apo-3.

[2] = test system: Jun N-terminal kinase (JNK/SAPK); assay: JNK/SAPK activity in 293 cells transfected with full length Apo-3 Ligand; type: cell-based, human; conditions: 293 cells, inhibitor 200 μM, FIG. 7
Procedure: The pRK5 plasmid encoding Apo-3 Ligand polypeptide or empty pRK5 plasmid (see Example 6 above) was transiently transfected into human 293 cells (ATCC CCL 1573) by calcium phosphate precipitation. Four hours later, one set of cells was treated with z-VAD-fmk (Research Biochemicals) (200 μM). Twenty hours later, the cells were harvested and analyzed for activity of Jun N-terminal kinase (JNK; also called stress activated protein kinase or SAPK) using a commercially available JNK/SAPK assay kit (New England Biolabs), and according to the manufacturer's instructions.

HeLa cells = assay: Apoptosis in HeLa cells transfected with full length Apo-3 Ligand (FACS, annexin V binding); type: cell-based, human; conditions: HeLa cells, inhibitor 200 μM, FIG. 6
Procedure: A pRK5 plasmid (see EP 307,247) encoding Apo-3 Ligand polypeptide (amino acids 1 to 249 of FIG. 1), or empty pRK5 plasmid, was transiently transfected along with a pRK5 plasmid encoding human CD4 as a marker for transfection into human HeLa cells by electroporation, and the cells were plated in tissue culture dishes. Four hours later, the caspase inhibitor z-VAD-fmk (Research Biochemicals) (200 μM) was added to some of the dishes. Twenty hours later, apoptosis was determined by FACS analysis of cells positive for the CD4 marker by measuring binding of fluorescein isothiocyanate (FITC)-conjugated annexin V (Brand Applications) (see WO 97/25428).

[3] = test system: MCF-7 breast carcinoma cells; assay: Apoptosis in MCF-7 breast carcinoma cells (microscopy, Hoechst dye); type: cell-based, human; conditions: MCF-7 cells pre-treated 1 hour, then 14 hours with ligand, FIG. 9B
Procedure: Human MCF-7 breast carcinoma cells (ATCC HTB 22) were pre-treated for 1 hour with cyclohexamide (CHX) (10 μg/ml) and incubated for 14 hours with soluble Apo-3 Ligand (2 μg/ml; prepared as described in Example 3 above) alone or together with zVAD-fmk (Research Biochemicals) (100 nM). The cells were then stained with Hoechst dye and photographed by phase (FIG. 9A, left) and by fluorescence (FIG. 9A, right) microscopy. In FIG. 9A, arrowheads indicate some of the apoptotic cells (left) and their condensed nuclei (right).
In a separate experiment, the MCF-7 cells were pre-treated for 1 hour with buffer or CHX, incubated for an additional 14 hours with the indicated concentrations of soluble Apo-3 Ligand (see FIG. 9B), and apoptotic or live cells were score by microscopy.

Compound: DEVD-fmk
effect on induction of apoptosis by Apo-3 Ligand [1]: blocked induction of apoptosis

binding to DR5 (DR5): bound to DR5
Compound: Apo-2 Ligand: TNF family cytokine, also referred to as TRAIL, tested for comparison

effect on apoptosis induction by Apo-3 Ligand (Apo-3 Ligand): inhibited apoptosis induction
Compound: Flag tagged Apo-3: Flag-epitope tagged soluble Apo-3 receptor (also DR3, Wsl-1, TRAMP, LARD)

Compound: COC(=O)C[C@H](NC(=O)[C@H](C)NC(=O)[C@@H](NC(=O)OCc1ccccc1)C(C)C)C(=O)CF [z-VAD-fmk, reference compound] (Cbz-Val-Ala-Asp(OMe)-CH2F)
effect on JNK activation by Apo-3 Ligand [2]: augmented JNK activation
effect on induction of apoptosis by Apo-3 Ligand [1]: blocked induction of apoptosis
effect on the increase in apoptosis by Apo-3 Ligand transfection (HeLa cells): blocked

Compound: C[C@@H]1C[C@@H]([C@H](O)CC2CC(=O)NC(=O)C2)C(=O)[C@@H](C)C1 [cyclohexamide, reference compound]
effect on Apo-3 ligand-induced apoptosis [3]: augmented
